Measurements: patent US4007282A, “Lowering lipid and sugar levels in the blood with a bis(4-hydroxyphenyl)alkanoic acid or ester thereof” (Hoechst Aktiengesellschaft, priority 1972, dated 1977)
Where two headings read alike, the source gives them in different places.

Legend:
[1] = in vivo; settings: mouse, po
[2] = tested on: normolipemic rats; experiment: Reduction of serum lipid values in normolipemic rats (8 days oral); assay type: in vivo, rat; settings: 8 doses, male rats; for serum cholesterol, change in percentage (A: referred to the initial value) / serum triglyceride, change in percentage (A: referred to the initial value): column A; for serum cholesterol, change in percentage (B: referred to the untreated control group) / serum triglyceride, change in percentage (B: referred to the untreated control group): column B
Procedure: 1. Male rats having a normal serum lipid content were treated for eight days with different daily doses mentioned in Table 1. The values given in that Table stand for a change in the serum concentrations of certain lipid classes. The doses administered per os by means of an esophageal sound were 100, 30 and 10 mg/kg/day. Generally, prior to and after the treatment, blood samples were taken and the concentration of cholesterol in the serum was determined according to the method of Lauber and Richterich and that of triglycerides according to the method of Eggstein and Kreutz. In the examples of the following Table 1, the changes in the serum lipid values due to the treatment with the substances of the invention are defined as follows:
a. The changes in percent in the final value of the treated group, referred to the initial value of the treated group, the initial value being 100 percent, and
b. the change in the final value of the treated group, referred to the final value of an accompanying untreated control group, the untreated control group's value being defined as 100 percent. Thus, the value given in columns A is the change in percentage referred to the initial value, whereas the value given in columns B is the change in percentage of the treated group, referred to the untreated control group.

[3] = tested on: dietetic-medicamentous hyperlipemia of male rats; experiment: Action on the dietetic-medicamentous hyperlipemia of male rats; assay type: in vivo; settings: Rattus norvegicus, po, 192 h, 100 mg/kg/day p.o., 8 days, male rats on cholesterol diet
Description: All the animals were fed with a diet food containing 2% of cholesterol, 2% of sodium cholate, 0.3% of methyl-thiouracil, 20% of coco fat and 44% of cane sugar. The serum lipid concentration of the animals treated with the compounds of the invention was compared to that of an untreated control group on the same diet, which diet causes the serum cholesteral concentration to rise within 1 week to about 10 times the initial value, that of the serum triglycerides to 3 times and that of the phospho-lipids in the serum to 4 times the initial value. The lipid phosphorus was determined according to the method of Messrs. Boehringer Mannheim W. Germany. At the same time as the diet was offered, the compounds of the invention were administered once a day to groups of rats, each containing 10 animals, over a period of 8 days by means of an esophageal sound. The change in percentage in the serum lipid concentration as compared to the control group (diet without active substance) is indicated in Table 2.

[4] = tested on: hypertriglyceridemia induced by carbohydrates in male rats; experiment: Action on the hypertriglyceridemia induced by carbohydrates (fructose) in male rats; assay type: in vivo; settings: Rattus norvegicus, 72 h, 3-day oral pre-treatment, vs untreated control, read-out: Change in percentage of hypertriglyceridemia induced by carbohydrates
[5] = tested on: rats that had been fed fructose doses; experiment: Hypoglycemic activity: lowering of the blood sugar level in rats fed fructose doses; assay type: in vivo, rat; settings: 100 mg/kg once a day over 3 days, 24 hours after last administration, vs placebo control group
Procedure: The hypoglycemic activity of some bis(4-hydroxy-phenyl) alkanoic acid derivatives of formulae I and II could be established by administering once a day, over 3 days, 100 mg of the active compound per kg of test animal to rats that had been fed fructose doses and by taking blood samples 24 hours after the last administration in order to determine the blood sugar level by means of an autoanalyzer.
The lowering of the blood sugar content indicated in following Table 4 refers to a control group treated with placebos (blank doses).

[6] = tested on: mice; settings: Table 3
[7] = read-out: serum cholesterol, change in percentage as compared to the control group
[8] = read-out: serum lipid phosphorus, change in percentage as compared to the control group
[9] = read-out: serum triglyceride, change in percentage as compared to the control group

SMILES	serum cholesterol, change in percentage (A: referred to the initial value) ([2]; 100 mg/kg/day p.o.) [%]	serum triglyceride, change in percentage (A: referred to the initial value) ([2]; 100 mg/kg/day p.o.) [%]	serum cholesterol, change in percentage (B: referred to the untreated control group) ([2]; 100 mg/kg/day p.o.) [%]	change in vivo at 100 mg/kg [3, 7] [%]	change in vivo at 100 mg/kg [3, 8] [%]	change in vivo at 100 mg/kg [3, 9] [%]	change in vivo at 100 mg/kg [4] [%]	LD50 [1] [mg/kg]	other results
CCOC(=O)C(C)(C)Oc1ccc(Cl)cc1 [Clofibrat, reference compound]	-22	-48	-15	0	-12	-27	-15		LD50 ([1]; LD50 mice p.o., mice, Table 3): 2000 to 2500 mg/kg; LD50 ([1]; p.o. LD50 mice, mice, Table 2): 2000 to 25000 mg/kg; serum triglyceride, change in percentage (B: referred to the untreated control group) ([2]; 100 mg/kg/day p.o.): -37%
Cc1cc(C(C)(CC(=O)O)c2ccc(O)c(C)c2)ccc1O [Example 1, 3,3-Bis(4'-hydroxy-3'-methyl-phenyl)butanoic acid]				-11	-15	-18			
CC(C)(C)c1cc(C(C)(CC(=O)O)c2ccc(O)c(C(C)(C)C)c2)ccc1O [Example 2, 3,3-Bis(4'-hydroxy-3'-tert.-butyl-phenyl)butanoic acid]				-19	-9	-13		2000	change in vivo at 30 mg/kg [4]: -63%
CC(C)(C)c1cc(C(C(=O)O)c2ccc(O)c(C(C)(C)C)c2)ccc1O [Example 4, Bis(4'-hydroxy-3'-tert.-butyl-phenyl)ethanoic acid]				-29	-25	-21			
CCCCOC(=O)C(c1ccc(O)c(C(C)(C)C)c1)c1ccc(O)c(C(C)(C)C)c1 [Example 5, Bis(4'-hydroxy-3'-tert.-butyl-phenyl)ethanoic acid n-butyl ester]									lowering of the blood sugar level in per cent [5]: -30 per cent
CCCCOC(=O)CC(C)(c1ccc(O)c(C)c1)c1ccc(O)c(C)c1 [Example 8, 3,3-bis(4'-hydroxy-3'-methyl-phenyl)butanoic acid n-butyl ester]	-43	-23	-26	-36	-37	-39		> 8000	serum cholesterol, change in percentage (B: referred to the untreated control group) ([2]; 10 mg/kg/day p.o.): -13%; serum triglyceride, change in percentage (B: referred to the untreated control group) ([2]; 10 mg/kg/day p.o.): -25%; serum cholesterol, change in percentage (A: referred to the initial value) ([2]; 30 mg/kg/day p.o.): -14%; serum cholesterol, change in percentage (B: referred to the untreated control group) ([2]; 30 mg/kg/day p.o.): -16%; serum triglyceride, change in percentage (B: referred to the untreated control group) ([2]; 30 mg/kg/day p.o.): -22%; LD50 mice p.o. [6]: > 8000 mg/kg
CCCCNC(=O)CC(C)(c1ccc(O)c(C(C)(C)C)c1)c1ccc(O)c(C(C)(C)C)c1 [Example 13, 3,3-Bis(4'-hydroxy-3'-tert.-butyl-phenyl)butanoic acid n-butylamide]								8000	change in vivo at 30 mg/kg [4]: -17%
CC(C)(C)c1cc(C(C)(CCC(=O)O)c2ccc(O)c(C(C)(C)C)c2)ccc1O [Example 14, 4,4-Bis(4'-hydroxy-3'-tert.-butyl-phenyl)pentanoic acid]				-36	-25	-13		4000	
CCCCOC(=O)CCC(C)(c1ccc(O)c(C(C)(C)C)c1)c1ccc(O)c(C(C)(C)C)c1 [Example 15, 4,4-Bis(4'-hydroxy-3'-tert.-butyl-phenyl)pentanoic acid n-butyl ester]	-37	-36	-20	-57	-53	-34	-28	> 8000	serum triglyceride, change in percentage (A: referred to the initial value) ([2]; 10 mg/kg/day p.o.): -20%; serum triglyceride, change in percentage (B: referred to the untreated control group) ([2]; 10 mg/kg/day p.o.): -34%; serum cholesterol, change in percentage (A: referred to the initial value) ([2]; 30 mg/kg/day p.o.): -13%; serum triglyceride, change in percentage (A: referred to the initial value) ([2]; 30 mg/kg/day p.o.): -32%; serum cholesterol, change in percentage (B: referred to the untreated control group) ([2]; 30 mg/kg/day p.o.): -10%; serum triglyceride, change in percentage (B: referred to the untreated control group) ([2]; 30 mg/kg/day p.o.): -37%; serum triglyceride, change in percentage (B: referred to the untreated control group) ([2]; 100 mg/kg/day p.o.): -13%; LD50 mice p.o. [6]: > 8000 mg/kg
CC(C)(C)c1cc(C(C)(CC(=O)OCCOC(=O)CC(C)(c2ccc(O)c(C(C)(C)C)c2)c2ccc(O)c(C(C)(C)C)c2)c2ccc(O)c(C(C)(C)C)c2)ccc1O [Example 16, Bis [3,3-bis(4'-hydroxy-3'-tert.-butyl-phenyl)butanoic acid] glycol ester]	-20	-27	-21						serum cholesterol, change in percentage (A: referred to the initial value) ([2]; 30 mg/kg/day p.o.): -10%; serum cholesterol, change in percentage (B: referred to the untreated control group) ([2]; 30 mg/kg/day p.o.): -15%; serum triglyceride, change in percentage (B: referred to the untreated control group) ([2]; 30 mg/kg/day p.o.): -32%; serum triglyceride, change in percentage (B: referred to the untreated control group) ([2]; 100 mg/kg/day p.o.): -26%; change in vivo at 30 mg/kg [4]: -24%
CC(C)(C)c1cc(C(C)(CC(=O)OCCCCCCOC(=O)CC(C)(c2ccc(O)c(C(C)(C)C)c2)c2ccc(O)c(C(C)(C)C)c2)c2ccc(O)c(C(C)(C)C)c2)ccc1O [Example 17, Bis [3,3-bis(4'-hydroxy-3'-tert.-butyl-phenyl)butanoic acid]hexane-diol-1,6ester]							-10	> 8000	lowering of the blood sugar level in per cent [5]: -18 per cent
CC(C)(C)c1cc(C(C)(CCC(=O)OCCOC(=O)CCC(C)(c2ccc(O)c(C(C)(C)C)c2)c2ccc(O)c(C(C)(C)C)c2)c2ccc(O)c(C(C)(C)C)c2)ccc1O [Example 18, Bis [4,4-bis(4'hydroxy-3'-tert.-butyl-phenyl)pentanoic acid] glycol ester]	-48	-51	-33	-36	-37	-19	-46	4340	serum triglyceride, change in percentage (B: referred to the untreated control group) ([2]; 100 mg/kg/day p.o.): -17%; change in vivo at 30 mg/kg [4]: -34%
CC(CCC(=O)O)(c1ccc(O)cc1)c1ccc(O)cc1 [Example 19, 4,4-Bis(4'-hydroxy-phenyl)pentanoic acid]				-17	-17	-28	-27		lowering of the blood sugar level in per cent [5]: -20 per cent
CC(C)(C)c1cc(C(C)(CC(=O)OCCOC(=O)CC(C)(c2cc(Br)c(O)c(C(C)(C)C)c2)c2cc(Br)c(O)c(C(C)(C)C)c2)c2cc(Br)c(O)c(C(C)(C)C)c2)cc(Br)c1O [Example 21, Bis [3,3-bis(4'-hydroxy-3'-tert.-butyl-5'-bromophenyl)butanoic acid] glycol ester]								4090	
